# Source: ChEMBL document CHEMBL1134187, “Synthesis and antitumor evaluation of novel monoindolyl-4-trifluoromethylpyridines and bisindolyl-4-trifluoromethylpyridines” (Bioorg Med Chem Lett, 2001)
# Legend:
# [1] = test system: A549; assay: Concentration for in vitro cytotoxicity against A-549 human lung tumor cells; type: functional, cell-based
# [2] = test system: A549; assay: Inhibition of proliferation of A549 cells at concentration of 0.1 uM was determined; type: functional; conditions: Homo sapiens
# [3] = test system: A549; assay: Inhibition of proliferation of A549 cells at concentration of 100 uM was determined; type: functional; conditions: Homo sapiens
# [4] = test system: A549; assay: Inhibition of proliferation of A549 cells at concentration of 10 uM was determined; type: functional; conditions: Homo sapiens
# [5] = test system: A549; assay: Inhibition of proliferation of A549 cells at concentration of 1 uM was determined; type: functional; conditions: Homo sapiens
# [6] = test system: P388; assay: Concentration for in vitro cytotoxicity against murine P388 leukemia cells; type: functional, cell-based; conditions: Mus musculus
# [7] = test system: P388; assay: Inhibition of proliferation of […] at concentration of 100 uM was determined; type: functional; conditions: Mus musculus
# [8] = test system: P388; assay: Inhibition of proliferation of […] at concentration of 10 uM was determined; type: functional; conditions: Mus musculus
# [9] = test system: P388; assay: Inhibition of proliferation of […] at concentration of 1 uM was determined; type: functional; conditions: Mus musculus
# [10] = test system: P388; assay: Inhibition of proliferation of […] at concentration of 0.1 uM was determined; type: functional; conditions: Mus musculus
Structure (SMILES),IC50 [1],inhibition at 0.1 µM [2],inhibition at 100 µM [3],inhibition at 10 µM [4],inhibition at 1 µM [5],IC50 [6],inhibition at 100 µM [7],inhibition at 10 µM [8],inhibition at 1 µM [9],inhibition at 0.1 µM [10]
Cc1ccc(S(=O)(=O)n2cc(-c3cc(C(F)(F)F)cc(-c4cn(S(=O)(=O)c5ccc(C)cc5)c5cc(Br)ccc45)n3)c3ccc(Br)cc32)cc1,> 100 µM,25.8%,49.2%,32%,30.7%,> 100 µM,8.9%,15.1%,10%,8.1%
Cc1ccc(S(=O)(=O)n2cc(-c3cc(C(F)(F)F)ccn3)c3cc(OCc4ccccc4)ccc32)cc1,> 100 µM,16.9%,35.9%,9.9%,23.2%,> 100 µM,2.2%,–,–,–
Cc1ccc(S(=O)(=O)n2cc(-c3cc(C(F)(F)F)c(C#N)c(-c4cn(S(=O)(=O)c5ccc(C)cc5)c5ccc(Br)cc45)n3)c3cc(Br)ccc32)cc1,78 µM,9.8%,70.6%,9.6%,17.4%,> 100 µM,8.2%,–,3.7%,–
COc1ccc2c(-c3cc(C(F)(F)F)cc(-c4cn(S(=O)(=O)c5ccc(C)cc5)c5cc(OC)ccc45)n3)cn(S(=O)(=O)c3ccc(C)cc3)c2c1,1.7 µM,1.7%,97.1%,28.8%,35.5%,4.3 µM,99.9%,92.8%,–,–
Cc1ccc(S(=O)(=O)n2cc(-c3cc(C(F)(F)F)c(C#N)c(-c4cn(S(=O)(=O)c5ccc(C)cc5)c5cc(Br)ccc45)n3)c3ccc(Br)cc32)cc1,> 100 µM,23.8%,48.1%,27.6%,18.8%,> 100 µM,1.3%,5.7%,1.7%,3.1%
Cc1ccc(S(=O)(=O)n2cc(-c3cc(C(F)(F)F)ccn3)c3ccccc32)cc1,25 µM,25%,68.4%,35%,23.8%,> 100 µM,49.9%,–,10.5%,–
COc1ccc2c(c1)c(-c1cc(C(F)(F)F)ccn1)cn2S(=O)(=O)c1ccc(C)cc1,> 100 µM,16.9%,51.8%,14.1%,23.2%,> 100 µM,15.6%,–,–,–
Cc1ccc(S(=O)(=O)n2cc(-c3cc(C(F)(F)F)cc(-c4cn(S(=O)(=O)c5ccc(C)cc5)c5ccccc45)n3)c3ccccc32)cc1,23 µM,37.5%,69.3%,27.6%,36.7%,> 100 µM,14.7%,23.5%,20.9%,15.7%
COc1ccc2c(c1)c(-c1cc(C(F)(F)F)cc(-c3cn(S(=O)(=O)c4ccc(C)cc4)c4ccc(OC)cc34)n1)cn2S(=O)(=O)c1ccc(C)cc1,> 100 µM,16.7%,41.7%,22.2%,7.1%,> 100 µM,13.8%,5%,7%,9.3%
COc1ccc2c(c1)c(-c1cc(C(F)(F)F)c(C#N)c(-c3cn(S(=O)(=O)c4ccc(C)cc4)c4ccc(OC)cc34)n1)cn2S(=O)(=O)c1ccc(C)cc1,> 100 µM,25%,17.7%,25.2%,24.4%,> 100 µM,–,3.5%,–,1.7%
COc1ccc2c(-c3cc(C(F)(F)F)c(C#N)c(-c4cn(S(=O)(=O)c5ccc(C)cc5)c5cc(OC)ccc45)n3)cn(S(=O)(=O)c3ccc(C)cc3)c2c1,> 100 µM,33%,21.2%,13.3%,26.7%,> 100 µM,3.8%,10.1%,9.1%,5.1%
Cc1ccc(S(=O)(=O)n2cc(-c3cc(C(F)(F)F)ccn3)c3cc(Br)ccc32)cc1,4.1 µM,38.9%,98%,20.6%,32.8%,> 100 µM,32.6%,21.9%,17.8%,9.7%
